Where “and” joins values, the source holds several entries; their conditions need not be identical. Identical values can stand only once. Like-named read-outs stand apart in the source and are kept apart here.
Key:
male hamsters [1] = test: Sexual activity toward a receptive female; format: in vivo, golden hamsters; conditions: 50 μg/kg, 90 min
Experimental: Six animals were tested over a five min observation period for sexual activity following treatment with saline vehicle or 50 μg/kg Mox (FIG. 6). The study was counter balanced with each animal receiving each treatment. Ninety min after injection, animals were scored for latency to mount and number of intromissions, i.e., bouts of copulation, toward a receptive female placed into their home cage. Female golden hamsters were ovariectomized under general anesthesia. Following recovery animals were treated with a single SC injection of […] estradiol benzoate for three consecutive days to induce sexual receptivity. On the day of testing the estrogen primed females were introduced into the home cage of the experimental males. […] Lordosis, is a stereotyped posture characterized by intense, sustained vertebral dorsiflexion.

male hamsters [2] = test: Radial arm maze (spatial memory); format: in vivo; conditions: 50 μg/kg
From the text: The radial arm maze is one of the most commonly used methods for testing spatial learning and memory in rodents. Developed by Olton and co-workers (1976), it provides the simultaneous choice of several alternative paths for the test subject. Animals must learn which locations provide food (place learning) using visuospatial cues. Experimental Trials: The experimental trials consist of three phases (described below). The arms of the maze are numbered clock-wise from one to seven with arm number one being the arm furthest to the right side of the maze. All trials are […]. When not being tested, all hamsters have unlimited access to water. […] Trials within all the phases are conducted on successive days. Phase One: Phase One consists of five 15 min trials. Prior to the beginning of each of the five trials in Phase One, four sunflower seeds are placed at the ends of arms one, two, and three. Arms four, five, six, and seven remain empty. Phase Two: Phase Two of the experimental trials are identical to Phase One except that the seeds are placed in arms two, four, and seven. […] Coding of Behaviors: An arm entry was scored if all four paws of a hamster crossed an arm threshold. A full arm entry into an arm is scored if a hamster's snout touches the top of the block at the end of an arm or if their snout passes the block. […] In addition, the number of seeds pouched by the hamsters was scored. […]

[3] = system: adolescent male rhesus macaques; test: Social behavior in non-human primates; format: in vivo; conditions: 1 mg/kg IM
Experimental: Eight, two year old adolescent male rhesus macaques were tested with Mox. Animals were raised with their mothers in a group setting at a field station. At one year of age, they were transferred to individual cages. Each day thereafter, they were paired housed for two-three hrs. The adolescent partners were always the same. […] The display of social behaviors in this arrangement are very robust because of the limited amount of time the monkeys spend together. During the experiment the monkeys were paired in the “play-cage” where they were video taped for one hour. The study was designed so that behavioral data were obtained for each monkey under Mox and vehicle treatment. The treatment was an ABA type schedule of administration: Day 1—one member of each pair received 0.9% NaCl vehicle, Day 2—drug, Day 3—vehicle. Only one member of a pair was injected on a test day. The other member of a pair was injected a week later according to the same ABA schedule. […] Animals were video taped sixty minutes after injection for a one hr observation period. Animals were scored for over forty different behaviors (Winslow et al., 1988). Only twenty-eight are listed on TABLE I. The unreported behaviors, e.g., self-bites, vocalizations, clinging, mounts, escapes, self grooming were so infrequent that they were omitted from the analysis. Paired t-test was run for each behavioral measure.

[4] = system: Amino Acid, Adrenergic, Serotonergic, and Dopaminergic Receptors and Their Transporters; test: NOVASCREEN screen of thirty-six receptor and transporter binding assays; conditions: 100 nM, duplicate samples
From the text: Moxalactam was screened in thirty-six different binding assays by NOVASCREEN, a contract research organization based in Hanover, Md. […] These assays were chosen because their respective receptor or transporter may play a role in the pathophysiology of mental illness. […] [table] [table] [table] [table] [table]

[5] = cited from earlier work
gram-negative meningitis = conditions: 241 of 260; 4 g every 8 hrs for 2-3 weeks; cited from earlier work
male hamsters [6] = test: Novelty test, stress-induced release of cortisol; format: in vivo; conditions: 10 μg/kg IP
Experimental: The simple procedure of placing an adult male hamster into a novel environment for 5 min causes a significant, predictable increase in blood levels of cortisol (Weinberg and Wong 1986). This novelty test was used to assess the effects of CLAV on stress-induced release of cortisol. Two groups of male hamsters were treated IP with either CLAV (10 μg/kg, n=6), or saline vehicle (n=4). A third group (n=4) received no treatment or isolation stress and served as a control for basal levels of cortisol. Sixty min after treatment animals were taken from their home cage and placed into a novel cage for 5 min. Afterwards animals were sacrificed by decapitation and trunk blood collected for radioimmunoassay of cortisol. All animals were tested under reverse light:dark conditions four hrs into the dark cycle. Data were compared with a one-way ANOVA followed by Fisher PLSD post hoc tests.

Male Wistar rats = test: Elevated plus-maze (anxiolytic activity); format: in vivo, rat
[7] = cited from earlier work; remark: listed apart in the source
[8] = system: gram negative beta-lactamase enzymes; conditions: cited from earlier work

With `CO[C@@]1(NC(=O)C(C(=O)O)c2ccc(O)cc2)C(=O)N2C(C(=O)O)=C(CSc3nnnn3C)CO[C@@H]21` (stereo partly drawn) [Mox, 7-β-[2-carboxy-2-(4-hydroxyphenyl)acetamido]-7α-methoxy-3-[[(1-methyl-1H-tetrazol-5-yl)thio]methyl]-1-oxa-1-dethia-3-cephem-4-carboxylic acid] the intromission rate (male hamsters [1]) was “trend toward a decreased intromission rate”, the time to mount (male hamsters [1]; five min observation) was “significantly increased” and the “number of seeds discovered after reversing the orientation of the maze” value (male hamsters [2]) was “significantly increased”. The allogrooming [3] was “no effect”, the “duration of play fighting” value ([3]; sixty minutes after injection, one hr observation) was “significantly reduced” and the “effect in the thirty-six binding assays” value [4] was “no significant effect”. For the same molecule, the “accumulation with multiple injections” value ([5]; 8-12 hr intervals) was “no accumulation”, the elimination half-life ([5]; IM injection) was 2.3 h and the “time of peak plasma concentrations” value ([5]; after IM injection) was “one”. For the same molecule, the “CSF concentration as a percentage of serum concentration” value ([5]; human, in vivo) was 20% and 15-20% and the “patients with satisfactory response to antibiotic therapy” value (gram-negative meningitis) was 93%.

With `O=C(O)[C@H]1/C(=C/CO)O[C@@H]2CC(=O)N21` [CLAV, Clavulanic acid] the “effect on the release of cortisol in response to mild stress” value (male hamsters [6]) was “no ostensible effect”, the “blood level of cortisol vs untreated, non-stressed control” value (male hamsters [6]; sixty min, 5 min novel cage) was “more than twice” and the “effective dose, times less than CDP” value (Male Wistar rats; CLAV 100 ng/kg vs CDP 10 mg/kg) was 100,000 times. The open arm entries (Male Wistar rats; daily IP for seven days: CLAV 100 ng/kg, CDP 10 mg/kg) was “no significant difference”, the CSF/plasma ratio ([7]; in vivo) was “around 0.25” and the elimination half-life ([7]; in vivo) was “under two”. The plasma half-life ([7]; in vivo) was “over 2 hrs”, the volume of distribution ([7]; in vivo) was “around 15 liters” and the bioavailability ([7]; oral) was 64 to 75%. The “binding affinity for the beta-lactamases” value [8] was “very high” and the “concentration range inhibiting gram negative beta-lactamase enzymes” value [8] was 15 to 34 nM.
